Literature values in US20210244680A1, “WEARABLE LIPOSOMAL CANNABIDIOL TRANSDERMAL PATCH” (priority 2020, published 2021).

System: rats with arthritis
Conditions: topical gel containing CBD applied to rats with arthritis for 4 days

C=C(C)[C@@H]1CCC(C)=C[C@H]1c1c(O)cc(CCCCC)cc1O [CBD, Cannabidiol]
inflammation and signs of pain: significant drop in inflammation and signs of pain | side effects: without additional side effects
